From patent publication US9532985B2, “Tetrahydroquinoline derivatives for treating post-traumatic stress disorders” (ACTELION PHARMACEUTICALS LTD., priority 2007, dated 2017)

System: fear-potentiated acoustic startle response in Fischer F344 rats
Test: Fear-potentiated startle response in rats
Assay type: in vivo, rat
From the text: The compounds of formula I can be administered to the animal in order to assess their effects on emotional reactivity.
Signs of decreased emotional reactivity to acoustic stimuli have been discovered in an animal model of fear potentiated acoustic startle. Anxiolytic-like activity—as assessed by decreased acoustic startle reactivity—was observed one hour after treatment with a compound of the formula I compared to vehicle (PEG400) control treatment and to active treatment with diazepam given orally. […] In human medicine, increased acoustic startle reactivity has been observed in patients suffering from PTSD anxiety compared to healthy subjects (Exaggerated acoustic startle reflex in Gulf War veterans with posttraumatic stress disorder, Am. J. Psychiatry (1996), 153(1), 64-68).
In the fear-potentiated startle procedure in rats, a neutral stimulus such as light is repetitively paired with an aversive stimulus such as mild foot shock. When an animal is presented with loud acoustic stimuli, enhanced startle responses are elicited when the startle stimulus is preceded by the light (a classically conditioned increase in fear). Benzodiazepine anxiolytics attenuate the response enhancement. Startle response was recorded by using auditory startle chambers. […]

Row | SMILES | startle response amplitude (oral 107 mg/kg, one hour after treatment, compared with vehicle (PEG400) group control 1) | startle response amplitude (oral 3 mg/kg, compared with vehicle group control 2)
1 | CNC(=O)[C@@H](c1ccccc1)N1CCc2cc(OC)c(OC)cc2[C@@H]1CCc1ccc(C(F)(F)F)cc1.Cl [Compound A, (R)-2-{(S)-6,7-dimethoxy-1-[2-(4-trifluoromethyl-phenyl)-ethyl]-3,4-dihydro-1H-isoquinolin-2-yl}-N-methyl-2-phenyl-acetamide hydrochloride] | reduces in a significant manner the startle response amplitude | –
2 | CN1C(=O)CN=C(c2ccccc2)c2cc(Cl)ccc21 [diazepam] | – | reduces in a significant manner the startle response amplitude
